Measurements: patent US11098055B2, “Ester ACC inhibitors and uses thereof” (Gilead Apollo, LLC, priority 2015, dated 2021)
Converted amounts (≈) assume the structure as drawn. Read-outs that look alike come from different tables or passages of the source.

How the values were obtained:
C. krusei ATCC 6258 = experiment: Anti-Fungal (Candida) Activity Assay, broth microtiter MIC; assay type: cell-based, Candida krusei; conditions: Pichia kudriavzevii, ATCC6258, 48 h, 3 replicates, MIC read at 48 h
Protocol: Compounds of the present invention were evaluated in an Anti-Fungal Activity Assay. An exemplary procedure for the assay, which measures the susceptibility of various Candida species to anti-fungal compounds, follows. Compounds to be tested (including fluconazole and amphotericin B) were dissolved in DMSO to obtain a solution having a concentration of 1 mg/mL. These stock solutions were sterile filtered using a 0.22 um nylon syringe filter, then diluted in sterile water to achieve a final concentration of 128 μg/mL.
All species were grown from frozen stock by directly plating on to freshly prepared Sabouraud Dextrose agar (BD, Difco) and incubated overnight in ambient air at 35° C. for 24 h. A direct suspension was prepared in RPMI 1640+MOPS (Lonza, Biowhittaker) by taking individual colonies from the overnight cultures using sterile swabs soaked in sterile saline. The concentration of the suspension was determined using pre-determined standard curves. These suspensions were then diluted down to 5×10^3 CFU/mL to achieve a final concentration of 2.5×10^3 CFU/mL once added to the microtiter plate as per CLSI guidelines (M27-A3, Vol. 28 No. 14).
Broth microtiter MIC challenge plates were prepared following CLSI guidelines (M27-A3, Vol. 28 No. 14). The original CLSI guidelines focused on reading Candida MICs after 48 h of incubation. As reading after only 24 h offers a clear advantage of patient care, QC limits are being established for all drugs at 24 h. That being said there are no known interpretive breakpoints for amphotericin B at 24 h and the current fluconazole interpretive breakpoints are based on a 48 h reading. The MIC for the test compounds were recorded at 48 h. All MIC determinations were achieved by visually comparing the growth found in the antibiotic challenged wells to that of the growth control.

Botrtyis cinerea (Bc) = experiment: Growth inhibition assay of fungal pathogens; assay type: cell-based; conditions: 48 h, read-out: Concentration at 90% Inhibition Bc
Protocol: (§1) Compounds of the present invention were evaluated in a growth inhibition assay to determine the ability to control the growth of fungal pathogens, such as Botrtyis cinerea (Bc), Collectotrichum graminicola (Cg), Diplodia maydis (Dm), Fusarium moniliforme (Fm), Fusarium virguhforme (Fv), Phytophthora capsici (Pc), Rhizoctonia solani (Rs), and Septoria tritici (St). Compounds to be tested were dissolved in DMSO at 2.5 mg/ml to produce compound stock solutions (“stocks”). Stocks were diluted with DMSO by a five-fold dilution in a 96-well stock plate, and two sets of final concentrations of 50, 10, and 2 ppm or 2, 0.4, and 0.08 ppm were obtained in vitro. A set of positive controls was also prepared, with various concentrations of Soraphen (2, 0.4, and 0.08 ppm), Metalaxyl (1.1, 0.22, and 0.04 ppm), and Metconazole (2, 0.4, and 0.08 ppm or 0.2, 0.04, and 0.008 ppm) after the five-fold dilutions. Negative controls on each plate included 2% DMSO, water, and a blank (media+2% DMSO). Fungal spores were isolated from previously sub-cultured plates of Botrtyis cinerea (Bc), Collectotrichum graminicola (Cg), Diplodia maydis (Dm), Fusarium moniliforme (Fm), Fusarium virguliforme (Fv), Phytophthora capsici (Pc), and Septoria tritici (St). The isolated spores were diluted to individual concentrations with a 17% V8 liquid media. For Rhizoctonia solani (Rs) and Pythium irregulare, 1.5 mm mycelial plugs were used in place of spores and ¼ Potato Dextrose Broth (PDB) was used for dilution. The spore concentrations and plug sizes were based on growth curves generated at 48 hours for each pathogen. In a second 96-well plate, the spores or mycelial plugs, media, diluted compound solutions, and controls were combined. Once the compound was added, a true final concentration of compound in each well was measured by an OD600 reading, which adjusted for any compound precipitation that might have occurred in the well. Plate readings were repeated at both 24 and 48 hours. The blank negative control was used as a background subtraction. Additional visual ratings were performed at both 24 and 48 hours for checking on precipitation and confirming efficacy. Visual and OD600 ratings of the compounds at 48 hours were compared to the 2% DMSO negative control, and the percent of pathogen growth inhibition was determined based on those values.

[1] = test system: Collectotrichum graminicola (Cg); experiment: Growth inhibition assay of fungal pathogens; assay type: cell-based; conditions: 48 h, read-out: Concentration at 90% Inhibition Cg
Protocol: as §1

Diplodia maydis (Dm) = experiment: Growth inhibition assay of fungal pathogens; assay type: cell-based; conditions: Stenocarpella maydis, 48 h, read-out: Concentration at 90% Inhibition Dm
Protocol: as §1

[2] = test system: Fusarium moniliforme (Fm); experiment: Growth inhibition assay of fungal pathogens; assay type: cell-based; conditions: Fusarium verticillioides, 48 h, read-out: Concentration at 90% Inhibition Fm
Protocol: as §1

[3] = test system: Fusarium virguliforme (Fv); experiment: Growth inhibition assay of fungal pathogens; assay type: cell-based; conditions: 48 h, read-out: Concentration at 90% Inhibition Fv
Protocol: as §1

[4] = test system: Phytophthora capsici (Pc); experiment: Growth inhibition assay of fungal pathogens; assay type: cell-based; conditions: 48 h, read-out: Concentration at 90% Inhibition Pc
Protocol: as §1

Rhizoctonia solani (Rs) = experiment: Growth inhibition assay of fungal pathogens; assay type: cell-based; conditions: 48 h, read-out: Concentration at 90% Inhibition Rs
Protocol: as §1

Septoria tritici (St) = experiment: Growth inhibition assay of fungal pathogens; assay type: cell-based; conditions: Zymoseptoria tritici, 48 h, read-out: Concentration at 90% Inhibition St
Protocol: as §1

| Compound | MIC (C. krusei ATCC 6258; Table 3a) | MIC (C. krusei ATCC 6258; Table 3b (additional results)) | IC90 (Botrtyis cinerea (Bc); Table 4a) | IC90 (Botrtyis cinerea (Bc); Table 4b) | IC90 ([1]; Table 4a) | IC90 ([1]; Table 4b) | IC90 (Diplodia maydis (Dm); Table 4a) | IC90 (Diplodia maydis (Dm); Table 4b) | IC90 ([2]; Table 4a) | IC90 ([2]; Table 4b) | IC90 ([3]; Table 4a) | IC90 ([3]; Table 4b) | IC90 ([4]; Table 4a) | IC90 ([4]; Table 4b) | IC90 (Rhizoctonia solani (Rs); Table 4a) | IC90 (Rhizoctonia solani (Rs); Table 4b) | IC90 (Septoria tritici (St); Table 4a) | IC90 (Septoria tritici (St); Table 4b) |
| --- | --- | --- | --- | --- | --- | --- | --- | --- | --- | --- | --- | --- | --- | --- | --- | --- | --- | --- |
| CCOC(=O)c1sc2c(c1C)c(=O)n(C(C)(C)C(=O)N1CCCC1)c(=O)n2C[C@H](OC(C)C)c1ccccc1OC [Compound I-7, (R)-ethyl 1-(2-isopropoxy-2-(2-methoxyphenyl)ethyl)-5-methyl-3-(2-methyl-1-oxo-1-(pyrrolidin-1-yl)propan-2-yl)-2,4-dioxo-1,2,3,4-tetrahydrothieno[2,3-d]pyrimidine-6-carboxylate] | 2.1 to 4 µg/mL (≈ 3.59 to 6.83 µM) | 2.1 to 4 µg/mL (≈ 3.59 to 6.83 µM) | 0.4 µg/mL (≈ 0.683 µM) | 0.4 µg/mL (≈ 0.683 µM) | 0.4 µg/mL (≈ 0.683 µM) | 0.4 µg/mL (≈ 0.683 µM) | 0.4 µg/mL (≈ 0.683 µM) | 0.4 µg/mL (≈ 0.683 µM) | 0.08 µg/mL (≈ 0.137 µM) | 0.08 µg/mL (≈ 0.137 µM) | 0.4 µg/mL (≈ 0.683 µM) | 0.4 µg/mL (≈ 0.683 µM) | ≥ 50 µg/mL | ≥ 50 µg/mL | 0.08 µg/mL (≈ 0.137 µM) | 0.08 µg/mL (≈ 0.137 µM) | 10 µg/mL (≈ 17.1 µM) | 2 µg/mL (≈ 3.41 µM) |
| CCOC(=O)c1sc2c(c1C)c(=O)n(C(C)(C)C(=O)NC(C)C)c(=O)n2C[C@H](OC1CCOCC1)c1ccccc1OC [Compound I-8, (R)-ethyl 3-(1-(isopropylamino)-2-methyl-1-oxopropan-2-yl)-1-(2-(2-methoxyphenyl)-2-((tetrahydro-2H-pyran-4-yl)oxy)ethyl)-5-methyl-2,4-dioxo-1,2,3,4-tetrahydrothieno[2,3-d]pyrimidine-6-carboxylate] | 0.25 to 1 µg/mL (≈ 0.406 to 1.62 µM) | 2.1 to 4 µg/mL (≈ 3.41 to 6.5 µM) | 0.4 µg/mL (≈ 0.65 µM) | 0.4 µg/mL (≈ 0.65 µM) | 2 µg/mL (≈ 3.25 µM) | 2 µg/mL (≈ 3.25 µM) | 2 µg/mL (≈ 3.25 µM) | 2 µg/mL (≈ 3.25 µM) | 0.08 µg/mL (≈ 0.13 µM) | 0.08 µg/mL (≈ 0.13 µM) | 2 µg/mL (≈ 3.25 µM) | 2 µg/mL (≈ 3.25 µM) | ≥ 50 µg/mL | ≥ 50 µg/mL | ≥ 50 µg/mL | 10 µg/mL (≈ 16.2 µM) | ≥ 50 µg/mL | ≥ 50 µg/mL |
| CCOC(=O)c1sc2c(c1C)c(=O)n(C(C)(C)C(=O)NC(C)C)c(=O)n2C[C@H](OC(C)C)c1ccccc1OC [Compound I-9, (R)-ethyl 1-(2-isopropoxy-2-(2-methoxyphenyl)ethyl)-3-(1-(isopropylamino)-2-methyl-1-oxopropan-2-yl)-5-methyl-2,4-dioxo-1,2,3,4-tetrahydrothieno[2,3-d]pyrimidine-6-carboxylate] | 2.1 to 4 µg/mL (≈ 3.66 to 6.97 µM) | 2.1 to 4 µg/mL (≈ 3.66 to 6.97 µM) | 0.4 µg/mL (≈ 0.697 µM) | 0.4 µg/mL (≈ 0.697 µM) | 2 µg/mL (≈ 3.49 µM) | 2 µg/mL (≈ 3.49 µM) | 0.4 µg/mL (≈ 0.697 µM) | 0.4 µg/mL (≈ 0.697 µM) | 0.08 µg/mL (≈ 0.139 µM) | 0.08 µg/mL (≈ 0.139 µM) | 0.4 µg/mL (≈ 0.697 µM) | 0.4 µg/mL (≈ 0.697 µM) | ≥ 50 µg/mL | ≥ 50 µg/mL | ≥ 50 µg/mL | 10 µg/mL (≈ 17.4 µM) | ≥ 50 µg/mL | ≥ 50 µg/mL |
| CCOC(=O)c1sc2c(c1C)c(=O)n(C(C)(C)C(N)=O)c(=O)n2C[C@H](OCCOC)c1cc(F)ccc1OC [Compound I-10, (R)-ethyl 3-(1-amino-2-methyl-1-oxopropan-2-yl)-1-(2-(5-fluoro-2-methoxyphenyl)-2-(2-methoxyethoxy)ethyl)-5-methyl-2,4-dioxo-1,2,3,4-tetrahydrothieno[2,3-d]pyrimidine-6-carboxylate] | > 4.1 µg/mL | 2.1 to 4 µg/mL (≈ 3.71 to 7.07 µM) | ≥ 50 µg/mL | ≥ 50 µg/mL | ≥ 50 µg/mL | ≥ 50 µg/mL | ≥ 50 µg/mL | ≥ 50 µg/mL | ≥ 50 µg/mL | 10 µg/mL (≈ 17.7 µM) | ≥ 50 µg/mL | ≥ 50 µg/mL | ≥ 50 µg/mL | ≥ 50 µg/mL | ≥ 50 µg/mL | ≥ 50 µg/mL | ≥ 50 µg/mL | ≥ 50 µg/mL |
| CCOC(=O)c1sc2c(c1C)c(=O)n(C(C)(C)C(=O)NC(C)C)c(=O)n2C[C@H](OCCOC)c1cc(F)ccc1OC [Compound I-11, (R)-ethyl 1-(2-(5-fluoro-2-methoxyphenyl)-2-(2-methoxy-ethoxy)ethyl)-3-(1-(isopropylamino)-2-methyl-1-oxopropan-2-yl)-5-methyl-2,4-dioxo-1,2,3,4-tetrahydrothieno[2,3-d]pyrimidine-6-carboxylate] | 2.1 to 4 µg/mL (≈ 3.46 to 6.58 µM) | 2.1 to 4 µg/mL (≈ 3.46 to 6.58 µM) | 2 µg/mL (≈ 3.29 µM) | 2 µg/mL (≈ 3.29 µM) | 2 µg/mL (≈ 3.29 µM) | 2 µg/mL (≈ 3.29 µM) | 2 µg/mL (≈ 3.29 µM) | 2 µg/mL (≈ 3.29 µM) | 0.08 µg/mL (≈ 0.132 µM) | 0.08 µg/mL (≈ 0.132 µM) | 0.4 µg/mL (≈ 0.658 µM) | 0.4 µg/mL (≈ 0.658 µM) | ≥ 50 µg/mL | ≥ 50 µg/mL | ≥ 50 µg/mL | 10 µg/mL (≈ 16.5 µM) | ≥ 50 µg/mL | ≥ 50 µg/mL |
